Experimental data taken from US10087399B2, “Use of alkoxylated non-ionic surfactants as additive in aqueous membrane cleaning compositions” (BASF SE, priority 2012, dated 2018).

Key:
[1] = test system: Cobetia marina (DSMZ4741) bacterial fouling layer; test: Cleaning of bacterial fouling layer on PA, fluorescence spectroscopy (DAPI / Concanavalin A); type: cell-based
Experimental: Bacterial Strain and Growth Conditions
To generate bacterial fouling layers, the marine bacterium Cobetia marina (DSMZ4741) was used in this study. The strain was purchased from the DSMZ culture collections, Germany. Sea Salt Peptone (SSP, all ingredients purchased from Sigma-Aldrich) (sea salt 20 g; peptone 18 g; deionised water 1,000 ml, pH 7.8) was used as the growth medium. The culture stock was maintained on Sea Salt Peptone Agar (SSPA, all ingredients purchased from Sigma-Aldrich) slants (sea salt 20 g; peptone 18 g; agar 30 g; deionised water 1,000 ml, pH 7.8). Prior to the experiments, the culture was grown in the SSP medium on a rotary shaker at 180 rpm at 28° C. for 20-22 h in order to obtain cells in the logphase.
Preparation of Bacterial Fouling Layers
The polyamid thin film substrates prepared on glass slides were conditioned for 24 h in artificial seawater (sea salt 20 g; deionised water 1,000 ml, pH 7.8) before being transferred to the bacterial cell suspensions. A freshly grown (logphase) bacterial suspension was prepared with an absorbance of 0.2 at a wavelength of 600 nm (DU 800, Beckman Coulter, Krefeld, Germany). The conditioned replicate slides (four for each assay) were placed into individual compartments of quadric petri dishes and 5 ml of the bacterial suspension was added thereby fully immersing the slides. The plates were placed in an incubator at 28° C. on a rotary shaker (90 rpm). After 1 h of incubation, the slides were transferred into new quadric petri dishes containing 5 ml of fresh SSP medium. The plates were incubated for another 4 h at 28° C. on a rotary shaker (90 rpm) for the attached bacteria to proliferate on the surface of the slides. At the end of the incubation, the slides were gently rinsed in artificial seawater to remove any non-adherent cells.
Cleaning Experiments with Bacterial Fouling Layers
Similar to the experiments using the multi-component molecular fouling layers, selected cleaning conditions (pH 12) and agents were tested for their ability to remove bacterial cells and EPS matrix. Additionally, the cleaning potential of the protease subtilisin (Subtilisin A type VIII from Bacillus licheniformis, 12 U/mg, Sigma-Aldrich) and methylglycine diacetic acid, sodium salt ([…], BASF SE) applied alone or in combination with the surfactant 2-propylheptanol, 6 EO, 1 PO (Lutensol⋅ XL 60, BASF SE) was evaluated. For that, the enzyme (100 μg/ml) and/or chelating agent (active concentration of 0.2%) and/or the surfactant (active concentration of 0.025%) were dissolved in 10 mM NaH2PO4 buffer (Sigma-Aldrich, pH 8.1). The bacterial fouling layers were immersed in the particular cleaning solution for 10 min at room temperature followed by rinsing in deionised water. After that, they were immediately fixed.
For fluorescence microscopy/spectroscopy and atomic force microscopy, bacterial fouling layers were fixed by transferring the respective slides into quadric petri dishes containing 4% paraformaldehyde (Sigma-Aldrich). After incubation for 15 min, the layers were rinsed with deionised water and dried by nitrogen.
For fluorescence staining, the slides were placed into custom-made incubation chambers in order to avoid backside staining. To stain the EPS matrix, Alexa 488-conjugated Concanavalin A (Molecular Probes, distributed by Invitrogen, Netherlands) dissolved in 0.1 M sodium bicarbonate (SigmaAldrich) buffer (pH 8.3) was added for 1 h in the dark (25 μg/cm^2). After incubation, the solution was removed and samples were washed with phosphate buffered saline (PBS, Sigma-Aldrich) twice. For staining of bacterial cells, DAPI solution (dissolved in PBS) was applied to Concanavalin A-stained samples for 5 min in the dark (25 μg/cm^2). After removal of the solution, the layers were washed with deionised water twice. Samples were taken out of the incubation chambers and dried by nitrogen.
Quantification of Cleaning Efficiency by Fluorescence Spectroscopy […]

[2] = Dynamic contact angle on PA; type: physicochemical; details: 0.2 g/l aqueous, 23° C.
Experimental: (§1) Determination of the Dynamic Contact Angle
(§2) The dynamic contact angle was measured with a video based high velocity measuring instrument for contact angle determination of the type OCAH 200 of the company Dataphysics Instruments 5 GmbH, Raiffeisenstr. 34, Fildersstadt, on the spin-coated glass slides.
(§3) The surfactants according to the invention listed in Tables […] used in an aqueous solution at a concentration of 0.2 g/l.
(§4) The contact angel is constantly determined (60 times per second) at 23° C. during 10 seconds after application. Under these conditions the contact angel of water without added surfactant remains at approximately at 65°. The contact angle on PA of the aqueous solutions of the branched tridecylethoxylates drops to 10° to 33°. The contact angle on PES of the aqueous solutions of the branched tridecylethoxylates drops to 17° to 37°. A contact angle after 10 seconds below 30° is preferred.

[3] = Dynamic contact angle on PES; type: physicochemical; details: 0.2 g/l aqueous, 23° C.
Experimental: as §1, §2, §3, §4

[4] = 10 mM NaH2PO4 buffer pH 8.1, surfactant 0.025%, chelating agent 0.2%, enzyme 100 μg/ml, 10 min

Row | Molecule | Cleaning Performance, Cells (DAPI) ([1]; 0.025%, pH 12, 10 min) | Cleaning Performance, Matrix (Concanavalin A) ([1]; 0.025%, pH 12, 10 min) | Cleaning Performance, Cells (DAPI) [1, 4] | Cleaning Performance, Matrix (Concanavalin A) [1, 4] | further results
1 | 2-Propylheptanol, 6 EO, 5 PO [Nr 38] | 52,8% | 15,2% |  |  | 
2 | 2-Propylheptanol, 6 EO, 1 PO [Nr 18] | 51,7% | 9,6% | 31,8% | 16,5% | 
3 | CC(C(=O)[O-])N(CC(=O)[O-])CC(=O)[O-].[Na+].[Na+].[Na+] (stereo not shown) [Methylglycine diacetic acid, sodium salt, reference compound] | 73,5% | 42,5% | 47,7% | 42,5% | 
4 | 2-Propylheptanol, 6 EO [Nr 22] | 25,1% | 0,2% |  |  | 
5 | linear alkylbenzenesulfonate, sodium salt [Nr 41, reference compound] | 35,9% | 10,8% |  |  | 
6 | branched C13—OH, 7 EO [Nr 4] |  |  |  |  | Contact angle at 0.1 s ([2]; 0.1 s): 48.2 °; Contact angle at 1 s ([2]; 1.0 s): 32.3 °; Contact angle at 10 s ([2]; 10.0 s): 10.5 °; Contact angle at 0.1 s ([3]; 0.1 s): 45.0°; Contact angle at 1 s ([3]; 1.0 s): 34.8°; Contact angle at 10 s ([3]; 10.0 s): 17.9°
7 | Subtilisin: protease subtilisin (Subtilisin A type VIII from Bacillus licheniformis, 12 U/mg, Sigma-Aldrich) (protein, UniProt P00780 106-379, looked up) Subtilisin Carlsberg: AQTVPYGIPLIKADKVQAQGFKGANVKVAVLDTGIQASHPDLNVVGGASFVAGEAYNTDGNGHGTHVAGTVAALDNTTGVLGVAPSVSLYAVKVLNSSGSGSYSGIVSGIEWATTNGMDVINMSLGGASGSTAMKQAVDNAYAKGVVVVAAAGNSGSSGNTNTIGYPAKYDSVIAVGAVDSNSNRASFSSVGAELEVMAPGAGVYSTYPTNTYATLNGTSMASPHVAGAAALILSKHPNLSASQVRNRLSSTATYLGSSFYYGKGLINVEAAAQ |  |  | 17,8% | 10,5% | 
